Experimental data published in the NIST ThermoML archive (doi:10.1016/j.jct.2019.03.025).

Experiment: xn = mol fraction of the nth substance listed
Conditions: Liquid, Vibrating tube method

Cc1cccc(C)c1 [1,3-dimethylbenzene] + CCCCCCCCCC
mass density [kg/m3]
Conditions	293.15 K	303.15 K	313.15 K	323.15 K	333.15 K	343.15 K	353.15 K	363.15 K
100 kPa, x2 = 0	864.2	855	846.7	837.7	829	820	811.3	802.2
100 kPa, x2 = 0.2005	825.1	816	808.1	799.4	791.1	782.3	773.9	765.1
100 kPa, x2 = 0.3999	793.6	784.6	777	768.6	760.5	752	743.8	735.2
100 kPa, x2 = 0.603	768.3	759.3	752	743.9	735.9	727.6	719.6	711.3
100 kPa, x2 = 0.7998	748.3	739.4	732.3	724.4	716.6	708.4	700.5	692.3
1000 kPa, x2 = 0	864.4	855.4	846.9	838.6	829.8	821.1	812.2	803.3
1000 kPa, x2 = 0.2005	825.4	816.7	808.4	800.3	791.9	783.5	774.8	766.2
1000 kPa, x2 = 0.3999	794.1	785.6	777.4	769.5	761.3	753.1	744.7	736.4
1000 kPa, x2 = 0.603	768.8	760.5	752.5	744.7	736.7	728.7	720.5	712.5
1000 kPa, x2 = 0.7998	748.9	740.8	732.8	725.2	717.4	709.4	701.4	693.5
3000 kPa, x2 = 0	865.8	857.5	848.6	840.2	831.7	823	814.3	805.5
3000 kPa, x2 = 0.2005	826.8	818.7	810.1	802	793.8	785.4	777.1	768.6
3000 kPa, x2 = 0.3999	795.4	787.4	779.1	771.3	763.3	755.1	747	738.8
3000 kPa, x2 = 0.603	770.2	762.3	754.1	746.5	738.7	730.7	722.8	714.9
3000 kPa, x2 = 0.7998	750.2	742.4	734.4	727	719.4	711.5	703.7	695.9
5000 kPa, x2 = 0	866.9	858.8	850.1	841.9	833.4	825	816.2	807.6
5000 kPa, x2 = 0.2005	828	820.1	811.7	803.8	795.6	787.5	779.1	770.8
5000 kPa, x2 = 0.3999	796.6	789	780.8	773.1	765.1	757.2	749	741
5000 kPa, x2 = 0.603	771.4	763.9	755.8	748.3	740.5	732.8	724.8	717.1
5000 kPa, x2 = 0.7998	751.5	744	736.1	728.8	721.2	713.6	705.8	698.2
10000 kPa, x2 = 0	870.5	862.3	854	845.9	837.6	829.4	821	812.4
10000 kPa, x2 = 0.2005	831.7	823.8	815.7	808	799.9	792	784	775.7
10000 kPa, x2 = 0.3999	800.4	792.5	784.7	777.3	769.5	761.8	753.9	745.9
10000 kPa, x2 = 0.603	775.2	767.5	759.8	752.6	744.9	737.5	729.8	722
10000 kPa, x2 = 0.7998	755.2	747.7	740.2	733.1	725.7	718.3	710.8	703
15000 kPa, x2 = 0	873.8	865.8	857.6	849.8	841.6	833.6	825.7	817.6
15000 kPa, x2 = 0.2005	835.1	827.3	819.4	811.9	804.1	796.4	788.7	781
15000 kPa, x2 = 0.3999	803.7	796.2	788.5	781.2	773.7	766.1	758.7	751.2
15000 kPa, x2 = 0.603	778.6	771.2	763.6	756.6	749.2	741.8	734.6	727.4
15000 kPa, x2 = 0.7998	758.6	751.4	743.9	737.1	729.9	722.6	715.6	708.5
20000 kPa, x2 = 0	877	869	861.1	853.6	845.6	837.9	829.8	821.8
20000 kPa, x2 = 0.2005	838.3	830.6	822.9	815.8	808.1	800.7	793	785.3
20000 kPa, x2 = 0.3999	807	799.5	792.1	785.1	777.7	770.5	763	755.6
20000 kPa, x2 = 0.603	781.8	774.4	767.2	760.4	753.2	746.2	739	731.7
20000 kPa, x2 = 0.7998	761.8	754.7	747.6	741	733.9	727	720	712.8
25000 kPa, x2 = 0	880.2	872.2	864.5	857	849.3	841.7	834	826
25000 kPa, x2 = 0.2005	841.5	833.8	826.4	819.2	811.9	804.6	797.2	789.5
25000 kPa, x2 = 0.3999	810.2	802.7	795.6	788.6	781.4	774.3	767.2	759.8
25000 kPa, x2 = 0.603	785	777.8	770.7	763.8	756.9	750	743.1	735.9
25000 kPa, x2 = 0.7998	765.1	758	751.1	744.4	737.7	730.9	724.1	717
30000 kPa, x2 = 0	883.2	875.3	867.7	860.4	852.8	845.5	838	830.2
30000 kPa, x2 = 0.2005	844.5	837	829.7	822.7	815.4	808.4	801.2	793.8
30000 kPa, x2 = 0.3999	813.3	805.9	798.8	792.1	785	778.2	771.2	764.1
30000 kPa, x2 = 0.603	788.1	780.9	773.9	767.4	760.5	753.9	747.1	740.2
30000 kPa, x2 = 0.7998	768.2	761.2	754.3	747.9	741.3	734.7	728.1	721.4
35000 kPa, x2 = 0	886	878.2	870.9	863.7	856.2	849.2	841.7	834.2
35000 kPa, x2 = 0.2005	847.3	840.1	833	826	818.9	812.1	805	797.8
35000 kPa, x2 = 0.3999	816.1	809	802.1	795.3	788.4	781.9	775	768.1
35000 kPa, x2 = 0.603	790.9	784.1	777.2	770.6	763.9	757.6	750.9	744.3
35000 kPa, x2 = 0.7998	771	764.3	757.6	751.2	744.7	738.4	731.9	725.4
40000 kPa, x2 = 0	888.7	881	873.8	866.9	859.7	852.5	845.3	838.1
40000 kPa, x2 = 0.2005	850.1	842.9	835.9	829.2	822.4	815.5	808.6	801.7
40000 kPa, x2 = 0.3999	818.8	811.8	805	798.6	792	785.3	778.6	772
40000 kPa, x2 = 0.603	793.7	786.9	780.1	773.9	767.4	761	754.5	748.2
40000 kPa, x2 = 0.7998	773.8	767.1	760.5	754.4	748.2	741.8	735.4	729.3
50000 kPa, x2 = 0	894.4	886.7	879.8	873	866	859.1	852.1	845.2
50000 kPa, x2 = 0.2005	855.8	848.6	841.9	835.3	828.7	822.1	815.4	808.8
50000 kPa, x2 = 0.3999	824.5	817.5	810.9	804.7	798.2	791.9	785.4	779.1
50000 kPa, x2 = 0.603	799.4	792.6	786.1	779.9	773.7	767.6	761.3	755.2
50000 kPa, x2 = 0.7998	779.4	772.8	766.4	760.4	754.4	748.5	742.2	736.3
60000 kPa, x2 = 0	899.1	892	885.1	878.8	871.9	865	858.5	852
60000 kPa, x2 = 0.2005	860.6	853.9	847.2	841.2	834.6	828.1	821.8	815.6
60000 kPa, x2 = 0.3999	829.2	822.7	816.2	810.5	804.2	797.8	791.8	785.8
60000 kPa, x2 = 0.603	804	797.8	791.3	785.8	779.6	773.4	767.6	761.8
60000 kPa, x2 = 0.7998	784.1	778	771.6	766.3	760.4	754.2	748.5	742.9
